Source: patent US20240116985A1, “STAPLED PEPTIDES AND METHODS THEREOF” (priority 2020, published 2024)
Converted amounts (≈) assume the structure as drawn. Like-named read-outs stand apart in the source and are kept apart here. Each block holds one compound with its values, some of them ahead of it.

Legend:
Solubility in PBS = format: physicochemical
In short: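 PBS sample ultracentrifuged; supernatant run on HPLC vs. 50 μM peptide in DMSO standard. Solubility = (PBS peak area / DMSO peak area) × 50 uM.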

CHI Log D procedure = format: physicochemical; conditions: for CHI Log D: pH 7.4; for chromatographic logD: pH 7.4, CHI Log D
[1] = biological target: T1, full-length beta-Catenin (Uniprot ID P35222) (Homo sapiens, UniProt P35222); assay: Fluorescence polarization IC50 (beta-catenin / 5FAM-TCF4 10-53 competition); format: binding
T1 construct: 10 nM full-length beta-Catenin (Uniprot ID P35222)
T1 sequence (P35222 1-781): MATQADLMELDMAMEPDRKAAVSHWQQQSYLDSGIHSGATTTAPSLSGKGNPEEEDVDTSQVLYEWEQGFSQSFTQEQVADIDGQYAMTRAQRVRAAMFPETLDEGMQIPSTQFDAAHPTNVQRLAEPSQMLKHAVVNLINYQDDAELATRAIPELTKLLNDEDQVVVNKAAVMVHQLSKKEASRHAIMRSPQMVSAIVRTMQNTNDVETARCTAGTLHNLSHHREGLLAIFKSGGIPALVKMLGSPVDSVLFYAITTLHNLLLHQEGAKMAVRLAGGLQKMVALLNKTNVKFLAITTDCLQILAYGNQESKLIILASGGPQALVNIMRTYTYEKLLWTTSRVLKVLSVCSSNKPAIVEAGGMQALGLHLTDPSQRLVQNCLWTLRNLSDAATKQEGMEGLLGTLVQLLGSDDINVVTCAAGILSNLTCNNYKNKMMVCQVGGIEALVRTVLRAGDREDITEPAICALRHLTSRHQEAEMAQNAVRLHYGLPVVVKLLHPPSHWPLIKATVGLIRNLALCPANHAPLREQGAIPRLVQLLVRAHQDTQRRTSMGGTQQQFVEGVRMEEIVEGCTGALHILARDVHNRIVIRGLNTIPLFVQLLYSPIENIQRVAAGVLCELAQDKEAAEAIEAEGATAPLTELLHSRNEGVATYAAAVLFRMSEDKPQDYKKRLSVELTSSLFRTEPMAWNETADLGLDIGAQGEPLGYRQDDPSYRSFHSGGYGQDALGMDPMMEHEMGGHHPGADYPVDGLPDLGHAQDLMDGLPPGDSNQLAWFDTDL

[2] = fluorescence polarization, read-out: beta-Catenin FP IC50

SMILES: CC(=O)N1CCC[C@]12CC=CCCCC1(CCCC=CCCCCCC[C@@](C)(C(=O)N[C@@H](Cc3ccccc3Cl)C(=O)N[C@@H](Cc3csc4ccccc34)C(=O)N[C@@H](C(N)=O)[C@H](C)O)NC(=O)[C@H]([C@@H](C)O)NC(=O)[C@H](Cc3ccccc3)NC(=O)[C@H](C)NC(=O)[C@H](C)NC(=O)[C@H](CCC(=O)O)NC(=O)[C@H](CC(=O)O)NC1=O)NC(=O)[C@H](CC(C)(C)C)NC(=O)[C@H](CC(=O)O)NC2=O (stereo partly drawn) [I-1093, Ac-PL3-Asp-Npg-B5-Asp-Glu-Ala-Ala-Phe-Thr-S8-2C1F-BztA-dThr-NH2]
Solubility (Solubility in PBS): 48 µM (≈ 90.1 µg/mL) | CHI Log D (CHI Log D procedure): 3.22 | IC50 ([1]; fluorescence polarization, beta-catenin, read-out: FP EC50): 0.043 µM | IC50 ([1]; read-out: beta-Catenin FP IC50): 0.043 µM

SMILES: CC(=O)N1CCC[C@]12CC=CCCCC1(CCCC=CCCCCCC[C@@](C)(C(=O)N[C@@H](Cc3ccccc3)C(=O)N[C@@H](Cc3csc4ccccc34)C(=O)N[C@@H](CCC(N)=O)C(N)=O)NC(=O)[C@H](C(C)C)NC(=O)[C@H](Cc3ccccc3)NC(=O)[C@H](C)NC(=O)[C@H](C)NC(=O)[C@H](CC(=O)O)NC(=O)[C@H](CC(=O)NC(C)C)NC1=O)NC(=O)[C@H](C)NC(=O)[C@H](CC(=O)O)NC2=O (stereo partly drawn) [I-535, Ac-PL3-Asp-Ala-B5-[NHiPr]AsnR-Asp-Ala-Ala-Phe-Val-S8-Phe-BztA-Gln-NH2]
Solubility (Solubility in PBS; Solubility (uM)): 47 µM (≈ 86.4 µg/mL) | chromatographic logD (CHI Log D procedure): 2.86 | IC50 [1, 2]: 5 µM

SMILES: CC(=O)N1CCC[C@]12CC=CCCCC1(CCCC=CCCCCCC[C@@](C)(C(=O)N[C@@H](Cc3c[nH]cn3)C(=O)N[C@@H](Cc3csc4ccccc34)C(=O)N[C@@H](CCC(N)=O)C(N)=O)NC(=O)[C@H](C)NC(=O)[C@H](Cc3ccccc3)NC(=O)[C@H](C)NC(=O)[C@H](C)NC(=O)[C@H](CC(=O)O)NC(=O)[C@H](CC(=O)O)NC1=O)NC(=O)[C@H](C)NC(=O)[C@H](CC(=O)O)NC2=O (stereo partly drawn) [I-362, Ac-PL3-Asp-Ala-B5-Asp-Asp-Ala-Ala-Phe-Ala-S8-His-BztA-Gln-NH2]
Solubility (Solubility in PBS; Solubility (uM)): 47 µM (≈ 82.7 µg/mL) | chromatographic logD (CHI Log D procedure): 1.44 | IC50 ([1]; Table E2-1, read-out: beta-Catenin FP IC50): 3.66 µM

Other lines, results leading:

Solubility (Solubility in PBS): 50 µM (≈ 94.3 µg/mL) | CHI Log D (CHI Log D procedure): 2.087 | IC50 [1, 2]: 0.18 µM | IC50 ([1]; read-out: FP EC50): 0.18 µM
SMILES: CO[C@H](C)[C@@H]1NC(=O)[C@H](CC(=O)O)NC(=O)[C@]2(CC=CCCCC3(CCCC=CCCCCCC[C@@](C)(C(=O)N[C@@H](Cc4ccccc4)C(=O)N[C@@H](Cc4csc5ccccc45)C(=O)N[C@@H](CCC(N)=O)C(N)=O)NC(=O)[C@H](CCC(N)=O)NC(=O)[C@H](Cc4ccccc4)NC(=O)[C@H](C)NC(=O)[C@H](C)NC(=O)[C@H](CCC(=O)O)NC(=O)[C@H](CC(=O)O)NC3=O)NC1=O)CCCN2C(C)=O (stereo partly drawn) [I-541, Ac-PL3-Asp-TOMe-B5-Asp-Glu-Ala-Ala-Phe-Gln-S8-Phe-BztA-Gln-NH2]

Solubility (Solubility in PBS): 47 µM (≈ 83.9 µg/mL) | CHI Log D (CHI Log D procedure): 3.103 | IC50 [1, 2]: 0.06 µM | IC50 ([1]; read-out: FP EC50): 0.713 µM
SMILES: CC(=O)N1CCC[C@]12CC=CCCCC1(CCCC=CCCCCCC[C@@](C)(C(=O)N[C@@H](Cc3ccccc3)C(=O)N[C@@H](Cc3csc4ccccc34)C(N)=O)NC(=O)[C@H](CCCNC(N)=O)NC(=O)[C@H](Cc3ccccc3)NC(=O)[C@H](C)NC(=O)[C@H](C)NC(=O)[C@H](CCC(=O)O)NC(=O)[C@H](CC(=O)O)NC1=O)NC(=O)[C@H](CC(C)C)NC(=O)[C@H](CC(=O)O)NC2=O (stereo partly drawn) [I-628, Ac-PL3-Asp-Leu-B5-Asp-Glu-Ala-Ala-Phe-Cit-S8-Phe-BztA-NH2]

Solubility (Solubility in PBS): 14 µM (≈ 26.3 µg/mL) | CHI Log D (CHI Log D procedure): 2.437 | IC50 [1, 2]: 0.034 µM | IC50 ([1]; read-out: FP EC50): 0.034 µM
SMILES: CC(=O)N1CCC[C@]12CC=CCCCC1(CCCC=CCCCCCC[C@@](C)(C(=O)N[C@@H](Cc3ccccc3)C(=O)N[C@@H](Cc3csc4ccccc34)C(=O)N[C@@H](Cc3c[nH]cn3)C(N)=O)NC(=O)[C@H](CCC(N)=O)NC(=O)[C@H](Cc3ccccc3)NC(=O)[C@H](C)NC(=O)[C@H](C)NC(=O)[C@H](CC(=O)O)NC(=O)[C@H](CC(=O)O)NC1=O)NC(=O)[C@H](CC(C)C)NC(=O)[C@H](CC(=O)O)NC2=O (stereo partly drawn) [I-561, Ac-PL3-Asp-Leu-B5-Asp-Asp-Ala-Ala-Phe-Gln-S8-Phe-BztA-His-NH2]
